“Also recorded” adds a separate entry of the source.
Legend:
[1] = test system: pathologically altered human aortas; test: Ex vivo test on the aorta model (stent implanted in the explant, 2 weeks culture, PCR); type: cell-based
Description: The ex vivo test on pathologically altered human arteries and, in particular, on human aortas is a novel test model that makes it possible to better predict the clinical efficacy of biologically active coatings of medical implants such as stents or balloon catheters. Until now, it was not possible to perform this prediction in a reliable manner. […] These failures have engendered doubt in the benefit of the standard animal models, since, despite additional serial examinations and comprehensive screenings, the clinical efficacy of a new substance is uncertain even though preclinical results were positive. Until now there was no test model available that investigated the antiproliferative effect of new drugs in the complex biological environment of an arteriosclerotic vessel. On the basis of this novel test model, it is now possible to obtain mechanistic insights into the origin of a restenosis after stent implantation and to develop a therapy specific for the cause thereof
The special test procedure is based on the use of human pathological vascular tissue obtained directly within one hour after operation (vasectomy). Immediately after removal, the vascular preparations are placed in a sterile phosphate buffer (PBS) at room temperature, and are transported. […]

[2] = cited from earlier work
[3] = cited from earlier work; remark: listed apart in the source

| Molecule | proliferation of smooth muscle cells (proliferation markers KI-67 and PCNA) ([1]; Pyr3 eluted from polymeric stent coating (embodiment 1) compared with uncoated 316L stent, after stent implantation with overexpansion, FIGS. 2 and 3) | total number of smooth muscle cells (expression of hSMTN and hAlpha-actin) ([1]; stent with Pyr3 (embodiment 1) compared with uncoated 316L stent, after stent implantation, FIG. 2) | efficacy in the experimental animal model [2] | antirestenotic effect / reduction of restenosis in clinical practice [3] |
| --- | --- | --- | --- | --- |
| CCOC(=O)c1cnn(-c2ccc(NC(=O)C(Cl)=C(Cl)Cl)cc2)c1C(F)(F)F [Pyr3, ethyl-1-(4-(2,3,3-trichloroacrylamide)phenyl)-5-(trifluoromethyl)-1H-pyrazole-4-carboxylate] | can be inhibited; also recorded: lower overall proliferation | does not lead to the otherwise common drop in total number of smooth muscle cells | – | – |
| heparin | – | – | good efficacy | did not reduce restenosis |
| CC(=O)Oc1ccccc1C(=O)O [aspirin] | – | – | good efficacy | did not reduce restenosis |
| CC[C@@H]1/C=C(\C)C[C@H](C)C[C@H](OC)[C@H]2O[C@@](O)(C(=O)C(=O)N3CCCC[C@H]3C(=O)O[C@H](/C(C)=C/[C@@H]3CC[C@H](Cl)[C@H](OC)C3)[C@H](C)[C@@H](O)CC1=O)[C@H](C)C[C@@H]2OC [pimecrolimus] | – | – | good efficacy | did not reduce restenosis |

Reference: US20120239140A1, “MEDICAL PRODUCT COMPRISING AN ACTIVE COATING” (priority 2011, published 2012)
